The values that follow come from patent publication US20260047583A1, “Bacillus Strain and Variants Thereof for Inhibition of Plant Diseases” (CHR. HANSEN A/S, priority 2022, published 2026).

Residues, ends and D or L forms follow the SMILES beside them.

For one test, the system named is P. irregulare. The test is described as follows: Inhibitory effect of pure lipopeptides and their combinations on growth in PDB, OD 600 nm. In kind it is cell-based, Pythium irregulare. On the procedure: (§1) Increasing concentrations of pure stocks of surfactin (Sigma S3523, FIG. 3A), fengycin (Sigma SMB00292, FIG. 3B) or iturin (Sigma 11774, FIG. 3C) were added to 48-well microtiter plates containing PDB medium and a fixed fungal spore concentration. Inhibitory effect over two different phytopathogenic species was assayed, F. culmorum (FIG. 3, left) and P. irregulare (FIG. 3, right). Plates were incubated at 25° C. without shaking for 60 hours (in dark conditions) and fungal growth was measured by spectrophotometry at 600 nm. Experiments were carried out in biological duplicates with no major variations in inhibition potency of the tested strains.
(§2) Fungal growth inhibition of increasing concentrations of single compounds was compared with compound combinations, where a fixed concentration of one of them was assayed in combination with increasing concentrations of the second metabolite.

The next test has as its system F. culmorum. The test is described as above. The format is cell-based, Fusarium culmorum. On the procedure:
as §1, §2

Setting [1] is: even at high concentrations (200-400 μg/ml), FIG. 3A.
[2] abbreviates: in the presence of surfactin, FIG. 4.

`CC(C)CCCCCCCCC[C@@H]1CC(=O)N[C@@H](CCC(=O)O)C(=O)N[C@@H](CC(C)C)C(=O)N[C@H](CC(C)C)C(=O)N[C@@H](C(C)C)C(=O)N[C@@H](CC(=O)O)C(=O)N[C@H](CC(C)C)C(=O)N[C@@H](CC(C)C)C(=O)O1` [surfactin] (HELM PEPTIDE1{E.L.[dL].V.D.[dL].L}|CHEM1{[CC(C)CCCCCCCCC[C@H](CC(=O)[*:1])O[*:2]]}$PEPTIDE1,CHEM1,1:R1-1:R1|PEPTIDE1,CHEM1,7:R2-1:R2$$$V2.0): the “inhibitory effect on growth” value with P. irregulare (setting [1]) and in the test with F. culmorum (setting [1]) was “very modest” throughout.

Turning to fengycin, the “effective concentration of fengycin required to inhibit growth” value in the test with P. irregulare (at surfactin concentrations of 100-200 μg/ml) amounted to 12.5 µg/mL. Besides, the “increase of bioactivity of fengycin in the presence of surfactin” value with P. irregulare (setting [2]) and in the test with F. culmorum (setting [2]) was “up to 6 fold” throughout.

In the case of iturin, the “effective concentration for growth inhibition” value with P. irregulare (60 h, 25° C., FIG. 3C) came to 9 µg/mL; with F. culmorum (60 h, 25° C., FIG. 3C), 9 µg/mL.
